Measured values published in patent publication US9751875B2, “Quinine compounds, and optical isomers, preparation method and medical use thereof” (BEIJING FSWELCOME TECHNOLOGY DEVELOPMENT CO., LTD., priority 2013, dated 2017).

What was measured:
[1] = tested on: tracheal smooth muscle from guinea pigs (contraction induced by 3 × 10^−6 mol/L of CCh); assay: Antagonism in vitro of contraction of isolated tracheal smooth muscle from guinea pigs induced by carbachol (CCh); format: cell-based, guinea pig; settings: read-out: IC50 (μM), antagonism in vitro against the contraction of the tracheal smooth muscle induced by CCh; 3 × 10^−6 mol/L of CCh; cumulative dosing
[2] = tested on: m1, m2 and m3 subtypes of M receptor; assay: Competitive [3H]-QNB binding on membranes of CHO cells transfected with m1, m2, m3; selectivity on subtypes of M receptor; settings: ratio of Ki, n = 6
[3] = tested on: bronchus in guinea pigs (contractile response induced by Mch); assay: Antagonism of contractile response of bronchus in guinea pigs induced by methacholine (Mch); airway resistance and pulmonary dynamic compliance; format: in vivo, guinea pig; settings: Mch 10 μg/kg iv after 30 min; for Cdyn(ml/cm H2O) / Raw (cm H2O/ml/s): Mean ± S.E.M
Excerpt: Determination of tidal volume, airway flow rate, and transpulmonary pressure: 1.5 g/kg of urethane was intraperitoneally injected to narcotize the guinea pig. The guinea pig was fixed supinely and treated with tracheal intubation, and the external jugular vein was separated and an indwelling needle was inserted; the guinea pig was enclosed into a body plethysmograph, a blunt needle for intubation into thoracic cavity was inserted between ribs 4˜5 of the prothorax of the guinea pig, and the intrathoracic pressure could be measured (with a negative value of a water column of a water manometer and a fluctuation with the breath of the guinea pig as marks). After stabilization, the values of the tidal volume, airway flow rate and transpulmonary pressure of the guinea pig prior to administration of Mch were recorded by a MedLab biological signal collection and processing system as base values. 10 μg/kg body weight of Mch was intravenously injected. The changes of the airway flow rate, tidal volume and transpulmonary pressure of the guinea pig within 5 minutes were observed. Calculation of Raw and Cdyn: the changes of the increased percentage of Raw value and the decreased percentage of Cdyn after […] of Mch were calculated.
Calculation formulas of Raw and Cdyn were respectively: […]
Dose-effect relationship: For each of the example compounds, 27 guinea pigs were randomly divided into […]: a solvent control group with […], a group with 1 μg/kg of the example compounds 4, 10, 14, and 26, a group with 3 μg/kg of the example compounds 4, 10, 14, and 26 and a group with 10 μg/kg of the example compounds 4, 10, 14, and 26; after 30 min from the dropping of the above concentration of drugs in the airway, 10 μg/kg body weight of Mch was intravenously injected for excitation, and airway resistance (Raw) and pulmonary dynamic compliance (Cdyn) within 5 min were determined. […]

[4] = tested on: tracheal smooth muscle from guinea pigs (contraction induced by 3 × 10^−6 mol/L of CCh); assay: Antagonism in vitro of contraction of isolated tracheal smooth muscle from guinea pigs induced by carbachol (CCh); format: cell-based, guinea pig

Compound: OC(CO[C@H]1C[N+]2(CCCOc3ccccc3)CCC1CC2)(c1ccccc1)C1CCC1.[Br-] (stereo partly drawn) [Example 14, (2S,3S)-3-[(2-cyclobutyl-2-hydroxyl-2-phenyl)ethoxyl]-1-(3-phenoxypropyl)-1-azabicyclo[2,2,2]octane bromide]
- IC50 [1]: 4.87 µM
- Selectivity m1/m2, Mx/My = Ki(y)/Ki(x) [2]: 25.6
- Selectivity m1/m3, Mx/My = Ki(y)/Ki(x) [2]: 0.205
- Selectivity m2/m3, Mx/My = Ki(y)/Ki(x) [2]: 0.008
- inhibition ratio against the decrease of pulmonary dynamic compliance ([3]; 1 μg/kg dropped in the airway): 11.0%
- inhibition ratio against the increase of airway resistance ([3]; 1 μg/kg dropped in the airway): 63.5%
- Cdyn(ml/cm H2O) ([3]; 1 μg/kg dropped in the airway): 0.101 ± 0.010 ml/cm H2O
- Raw (cm H2O/ml/s) ([3]; 1 μg/kg dropped in the airway): 0.719 ± 0.082 cm H2O/ml/s
- inhibition ratio against the decrease of pulmonary dynamic compliance ([3]; 3 μg/kg dropped in the airway): 46.1%
- inhibition ratio against the increase of airway resistance ([3]; 3 μg/kg dropped in the airway): 85.4%
- Cdyn(ml/cm H2O) ([3]; 3 μg/kg dropped in the airway): 0.141 ± 0.014 ml/cm H2O
- Raw (cm H2O/ml/s) ([3]; 3 μg/kg dropped in the airway): 0.560 ± 0.062 cm H2O/ml/s
- inhibition ratio against the decrease of pulmonary dynamic compliance ([3]; 10 μg/kg dropped in the airway): 49.5%
- inhibition ratio against the increase of airway resistance ([3]; 10 μg/kg dropped in the airway): 90.5%
- Cdyn(ml/cm H2O) ([3]; 10 μg/kg dropped in the airway): 0.207 ± 0.018 ml/cm H2O
- Raw (cm H2O/ml/s) ([3]; 10 μg/kg dropped in the airway): 0.504 ± 0.073 cm H2O/ml/s
- Onset time [4]: 6.34 min
- Time for eliminating inhibition effect (min) [4]: more than 300 min
